Read-outs that look alike come from different tables or passages of the source.
Tests used:
[1] = system: Mycosphaerella graminicola; Anamorph: Septoria tritici; experiment: Leaf Blotch of Wheat (SEPTTR) disease control on wheat seedlings; format: in vivo; details: Zymoseptoria tritici; for pest or weed control at 100 ppm: rate 100 ppm; for pest or weed control at 121.5 g/ha: rate 121.5 g/H
Procedure: Evaluation of Fungicidal Activity: Leaf Blotch of Wheat (Mycosphaerella graminicola; Anamorph: Septoria tritici; Bayer Code […]) Technical grades of materials were dissolved in acetone, which were then mixed with nine volumes of water containing 110 ppm Triton X-100. The fungicide solutions were applied onto wheat seedlings using an automated booth sprayer to run-off. All sprayed plants were allowed to air dry prior to further handling. All fungicides were evaluated using the aforementioned method for their activity vs. all target diseases. Wheat leaf blotch and brown rust activity were also evaluated using track spray applications, in which case the fungicides were formulated as EC formulations, containing 0.1% Trycol 5941 in the spray solutions. Wheat plants (variety Yuma) were grown from seed in a greenhouse in 50% mineral soil/50% soil-less Metro mix until the first leaf was fully emerged, with 7-10 seedlings per pot. These plants were inoculated with an aqueous spore suspension of Septoria tritici either prior to or after fungicide treatments. After inoculation the plants were kept in 100% relative humidity (one day in a dark dew chamber followed by two to three days in a lighted dew chamber at 20° C.) to permit spores to germinate and infect the leaf. The plants were then transferred to a greenhouse set at 20° C. for disease to develop. When disease symptoms were fully expressed on the 1st leaves of untreated plants, infection levels were assessed on a scale of 0 to 100 percent disease severity. Percent disease control was calculated using the ratio of disease severity on treated plants relative to untreated plants.

[2] = system: Puccinia triticina; Synonym: Puccinia recondite f. sp. tritici; experiment: Wheat Brown Rust (PUCCRT) disease control on wheat seedlings; format: in vivo; details: for pest or weed control at 100 ppm: rate 100 ppm; for pest or weed control at 121.5 g/ha: rate 121.5 g/H
Procedure: Technical grades of materials were dissolved in acetone, which were then mixed with nine volumes of water containing 110 ppm Triton X-100. The fungicide solutions were applied onto wheat seedlings using an automated booth sprayer to run-off. All sprayed plants were allowed to air dry prior to further handling. All fungicides were evaluated using the aforementioned method for their activity vs. all target diseases. Wheat leaf blotch and brown rust activity were also evaluated using track spray applications, in which case the fungicides were formulated as EC formulations, containing 0.1% Trycol 5941 in the spray solutions. Wheat plants (variety Yuma) were grown from seed in a greenhouse in 50% mineral soil/50% soil-less Metro mix until the first leaf was fully emerged, with 7-10 seedlings per pot. These plants were inoculated with an aqueous spore suspension of Septoria tritici either prior to or after fungicide treatments. After inoculation the plants were kept in 100% relative humidity (one day in a dark dew chamber followed by two to three days in a lighted dew chamber at 20° C.) to permit spores to germinate and infect the leaf. The plants were then transferred to a greenhouse set at 20° C. for disease to develop. When disease symptoms were fully expressed on the 1st leaves of untreated plants, infection levels were assessed on a scale of 0 to 100 percent disease severity. Percent disease control was calculated using the ratio of disease severity on treated plants relative to untreated plants. Evaluation of Fungicidal Activity: Wheat Brown Rust (Puccinia triticina; Synonym: Puccinia recondite f. sp. tritici; Bayer Code PUCCRT) Wheat plants (variety Yuma) were grown from seed in a greenhouse in 50% mineral soil/50% soil-less Metro mix until the first leaf was fully emerged, with 7-10 seedlings per pot. These plants were inoculated with an aqueous spore suspension of Puccinia triticina either prior to or after fungicide treatments. After inoculation the plants were kept in a dark dew room at 22° C. with 100% relative humidity overnight to permit spores to germinate and infect the leaf. The plants were then transferred to a greenhouse set at 24° C. for disease to develop. Fungicide formulation, application and disease assessment followed the procedures as described in the Example A.

[3] = 24 h, 1 Day Protectant, read-out: SEPTTR disease control, 1DP
[4] = 72 h, 3 Day Curative, read-out: SEPTTR disease control, 3DC
[5] = 24 h, 1 Day Protectant, read-out: PUCCRT disease control, 1DP
[6] = 72 h, 3 Day Curative, read-out: PUCCRT disease control, 3DC

SMILES	pest or weed control at 100 ppm [1, 3]	pest or weed control at 100 ppm [1, 4]	pest or weed control at 100 ppm [2, 5]	pest or weed control at 121.5 g/ha [1, 3]	pest or weed control at 121.5 g/ha [1, 4]	pest or weed control at 121.5 g/ha [2, 5]	pest or weed control at 100 ppm [2, 6]	pest or weed control at 121.5 g/ha [2, 6]
COc1ccnc(C(=O)N[C@H]2COC[C@H](Cc3ccc(C(F)(F)F)cc3)[C@@H](OC(=O)C(C)C)[C@H](C)OC2=O)c1O [Compound F30]	80 to 100%	0 to 80%	80 to 100%					
CCOCC(=O)OCOc1c(OC)ccnc1C(=O)N[C@H]1COC[C@H](CC2CCCC2)[C@@H](OCC(C)C)[C@H](C)OC1=O [Compound F121]	80 to 100%	80 to 100%	80 to 100%	80 to 100%	80 to 100%	80 to 100%	80 to 100%	80 to 100%

Source: patent US9439422B2, “Use of macrocyclic picolinamides as fungicides” (DOW AGROSCIENCES LLC, priority 2013, dated 2016)
